Reference: BindingDB's records for doi:10.1002/cbic.201600573 (X-Chem Pharmaceuticals, 2017)

The compounds below were run against Tyrosine-protein kinase BTK (Homo sapiens, UniProt Q06187) (assay: BTK FRET Competitive Binding Assay). Details: 30 °C.
Method: The BTK time-resolved FRET-based competitive binding assay and cell-based BTK assays have been previously described.[Xu et al., J.Pharmacol. Exp. Ther., 341:90-103] For the BTK Omnia kinetic assay used in the mechanism of action experiments, assay reagents were prepared from the Omnia Y peptide 5 kit as follows: kinase reaction buffer was diluted to 1X in dH2O. A 10X substrate (100 μm) was prepared in dH20. ATP was prepared at 1 mM (10×) in dH2O, and 2 mM (10×) DTT was prepared in dH2O. A master mix of kinase buffer (10×), peptide (10×), and DTT (10×), all at 2 μL, and dH2O (4 μL) was prepared per well. Untagged BTK enzyme was run in a final concentration of 20 nM. Compounds at varying concentrations and ATP dilutions were prepared in 1V kinase buffer. Final compound DMSO concentration was 1.25 %. In a black non-binding plate (Corning 3676), enzyme (5 μL) was added to compound/ATP mix (5 μL). The plate was incubated for 20 min at 30 °C, then master mix (10 μL) was added into each well and mixed. The plate was incubated at 30 °C, and fluorescence intensity readings at λex=360 nm, λem=485 nm was collected at predetermined intervals on the Tecan M1000.

Sequence of Tyrosine-protein kinase BTK (Q06187 whole entry): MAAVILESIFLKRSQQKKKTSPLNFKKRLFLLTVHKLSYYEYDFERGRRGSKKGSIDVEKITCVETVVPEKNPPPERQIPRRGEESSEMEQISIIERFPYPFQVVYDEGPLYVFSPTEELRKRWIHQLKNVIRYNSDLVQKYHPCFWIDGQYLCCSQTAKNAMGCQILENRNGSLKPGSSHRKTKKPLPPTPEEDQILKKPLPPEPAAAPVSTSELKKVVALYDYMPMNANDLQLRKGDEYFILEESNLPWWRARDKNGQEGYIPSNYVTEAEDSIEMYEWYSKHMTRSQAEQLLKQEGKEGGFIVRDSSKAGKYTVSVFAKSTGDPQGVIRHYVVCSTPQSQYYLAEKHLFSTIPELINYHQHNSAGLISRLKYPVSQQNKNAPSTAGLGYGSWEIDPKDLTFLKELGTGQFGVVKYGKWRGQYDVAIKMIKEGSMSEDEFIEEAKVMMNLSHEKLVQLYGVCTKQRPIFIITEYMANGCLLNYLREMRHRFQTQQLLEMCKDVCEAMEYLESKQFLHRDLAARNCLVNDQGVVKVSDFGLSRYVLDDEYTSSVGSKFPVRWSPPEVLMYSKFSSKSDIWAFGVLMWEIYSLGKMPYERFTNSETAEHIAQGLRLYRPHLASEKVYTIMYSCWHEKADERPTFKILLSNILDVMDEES

Row | SMILES | IC50 [nM]
1 | CNC(=O)C(Cc1c[nH]c2ncccc12)NC(=O)c1n[nH]c2cccc(CNc3ccc(O)cc3Cl)c12 (stereo not drawn) [BTK inhibitor, 1] | 2500
2 | CNC(=O)Cc1cccc(NC(=O)c2n[nH]cc2CNc2ccccc2[C@H](O)c2ccccc2)c1 [BTK inhibitor, 2] | 210
3 | CNC(=O)[C@H]1Cc2c([nH]c3ccccc23)CN1C(=O)c1occc1CNc1ccc2nccnc2c1 [BTK inhibitor, 3] | 0.55
